Blank lines part the entries; values can stand above or below the molecule they belong to. Calls of active or inactive are those of the source. The rule behind the calls is not given here.
Key:
SGC-7901 = assay: Antiproliferative activity against human SGC7901 cells after 24 to 72 hrs by MTT assay; type: functional, cell-based
HeLa = assay: Antiproliferative activity against human HeLa cells after 24 to 72 hrs by MTT assay; type: functional, cell-based
A549 = assay: Antiproliferative activity against human A549 cells after 24 to 72 hrs by MTT assay; type: functional, cell-based
Staphylococcus aureus = assay: Antibacterial activity against Staphylococcus aureus after 24 hrs by two fold dilution assay; type: functional, organism-based
Escherichia coli = assay: Antibacterial activity against Escherichia coli after 24 hrs by two fold dilution assay; type: functional, organism-based
Bacillus subtilis = assay: Antibacterial activity against Bacillus subtilis after 24 hrs by two fold dilution assay; type: functional, organism-based
Streptococcus agalactiae = assay: Antibacterial activity against Streptococcus agalactiae after 24 hrs by two fold dilution assay; type: functional, organism-based
K562 = assay: Antiproliferative activity against human K562 cells after 24 to 72 hrs by MTT assay; type: functional, cell-based
[1] = Inhibition of quorum sensing in C6-HSL-induced Chromobacterium violaceum CV026 assessed as […] by measuring minimum inhibitory dose per well after 18 hrs by well diffusion method

Structure (SMILES): CCC(=O)O[C@H](c1nc2ccccc2c(=O)n1[C@@H]1C[C@]2(OC1=O)c1ccccc1N1C(=O)C(C)(C)N(O)[C@H]12)C(C)C
Activity (SGC-7901): inactive
Activity (HeLa): inactive
Activity (A549): inactive
Activity (Staphylococcus aureus): inactive
Activity (Escherichia coli): inactive
Activity (Bacillus subtilis): inactive
Activity (Streptococcus agalactiae): inactive
Activity (K562): inactive

Structure (SMILES): CC1(C)C(=O)N2c3ccccc3[C@@]3(C[C@H](n4cnc5ccccc5c4=O)C(=O)O3)[C@@H]2N1O
Activity (SGC-7901): inactive
Activity (HeLa): inactive
Activity (A549): inactive
Activity (Staphylococcus aureus): inactive
Activity (Escherichia coli): inactive
Activity (Bacillus subtilis): inactive
Activity (Streptococcus agalactiae): inactive
Activity (K562): inactive

Structure (SMILES): CC(C)[C@H](O)c1nc2ccccc2c(=O)n1[C@H]1C[C@]2(OC1=O)c1ccccc1N1C(=O)C(C)(C)N(O)[C@H]12
Activity (SGC-7901): inactive
Activity (HeLa): inactive
Activity (A549): inactive
Activity (Staphylococcus aureus): inactive
Activity (Escherichia coli): inactive
Activity (Bacillus subtilis): inactive
Activity (Streptococcus agalactiae): inactive
Activity (K562): inactive

Structure (SMILES): CC(C)[C@@H]1NC(=O)[C@@H](C[C@]2(O)c3ccccc3N3C(=O)C(C)(C)N[C@H]32)n2c1nc1ccccc1c2=O
Activity (SGC-7901): inactive
Activity (HeLa): inactive
Activity (A549): inactive
Activity (Staphylococcus aureus): inactive
Activity (Escherichia coli): inactive
Activity (Bacillus subtilis): inactive
Activity (Streptococcus agalactiae): inactive
Activity (K562): inactive

MIC [1]: 32 µg
Structure (SMILES): CC(=O)OC(c1nc2ccccc2c(=O)n1[C@H]1C[C@@]2(OC1=O)C(=O)Nc1ccccc12)C(C)C (some centres not stated)
Activity (SGC-7901): inactive
Activity (HeLa): inactive
Activity (A549): inactive
Activity (Staphylococcus aureus): inactive
Activity (Escherichia coli): inactive
Activity (Bacillus subtilis): inactive
Activity (Streptococcus agalactiae): inactive
Activity (K562): inactive

Structure (SMILES): CC(=O)O[C@H](c1nc2ccccc2c(=O)n1[C@@H]1C[C@]2(OC1=O)c1ccccc1N1C(=O)C(C)(C)N[C@H]12)C(C)C
Activity (SGC-7901): inactive
Activity (HeLa): inactive
Activity (A549): inactive
Activity (Staphylococcus aureus): inactive
Activity (Escherichia coli): inactive
Activity (Bacillus subtilis): inactive
Activity (Streptococcus agalactiae): inactive
Activity (K562): inactive

Structure (SMILES): O=C1N[C@@H]2c3nc4ccccc4c(=O)n3[C@@H]1C[C@@]21C(=O)Nc2ccccc21
Activity (SGC-7901): inactive
Activity (HeLa): inactive
Activity (A549): inactive
Activity (Staphylococcus aureus): inactive
Activity (Escherichia coli): inactive
Activity (Bacillus subtilis): inactive
Activity (Streptococcus agalactiae): inactive
Activity (K562): inactive

MIC [1]: 16 µg
Structure (SMILES): CC(C)=C1NC(=O)[C@@H](C[C@@]2(O)C(=O)Nc3ccccc32)n2c1nc1ccccc1c2=O
Activity (SGC-7901): inactive
Activity (HeLa): inactive
Activity (A549): inactive
Activity (Staphylococcus aureus): inactive
Activity (Escherichia coli): inactive
Activity (Bacillus subtilis): inactive
Activity (Streptococcus agalactiae): inactive
Activity (K562): inactive

Structure (SMILES): CC1(C)C(=O)N2c3ccccc3[C@@]3(C[C@H]4n5c(nc6ccccc6c5=O)C(=O)C(C)(C)[C@@]4(O)O3)[C@@H]2N1O
Activity (SGC-7901): inactive
Activity (HeLa): inactive
Activity (A549): inactive
Activity (Staphylococcus aureus): inactive
Activity (Escherichia coli): inactive
Activity (Bacillus subtilis): inactive
Activity (Streptococcus agalactiae): inactive
Activity (K562): inactive

Structure (SMILES): CC(C)[C@@H](O)c1nc2ccccc2c(=O)n1[C@H]1C[C@]2(OC1=O)c1ccccc1N1C(=O)C(C)(C)N(O)[C@H]12
Activity (SGC-7901): inactive
Activity (HeLa): inactive
Activity (A549): inactive
Activity (Staphylococcus aureus): inactive
Activity (Escherichia coli): inactive
Activity (Bacillus subtilis): inactive
Activity (Streptococcus agalactiae): inactive
Activity (K562): inactive

Structure (SMILES): CC(=O)O[C@@H](c1nc2ccccc2c(=O)n1[C@H]1C[C@]2(OC1=O)c1ccccc1N1C(=O)C(C)(C)N[C@H]12)C(C)C
Activity (SGC-7901): inactive
Activity (HeLa): inactive
Activity (A549): inactive
Activity (Staphylococcus aureus): inactive
Activity (Escherichia coli): inactive
Activity (Bacillus subtilis): inactive
Activity (Streptococcus agalactiae): inactive
Activity (K562): inactive

Structure (SMILES): CC(C)[C@@]1(O)NC(=O)[C@@H](C[C@]2(O)c3ccccc3N3C(=O)C(C)(C)N(O)[C@H]32)n2c1nc1ccccc1c2=O
Activity (SGC-7901): inactive
Activity (HeLa): inactive
Activity (A549): inactive
Activity (Staphylococcus aureus): inactive
Activity (Escherichia coli): inactive
Activity (Bacillus subtilis): inactive
Activity (Streptococcus agalactiae): inactive
Activity (K562): inactive

Structure (SMILES): CC(C)[C@H](O)c1nc2ccccc2c(=O)n1[C@H]1C[C@]2(OC1=O)c1ccccc1N1C(=O)C(C)(C)N(S(C)(=O)=O)[C@H]12
Activity (SGC-7901): inactive
Activity (HeLa): inactive
Activity (A549): inactive
Activity (Staphylococcus aureus): inactive
Activity (Escherichia coli): inactive
Activity (Bacillus subtilis): inactive
Activity (Streptococcus agalactiae): inactive
Activity (K562): inactive

Structure (SMILES): CC(=O)O[C@H](c1nc2ccccc2c(=O)n1[C@@H]1C[C@]2(OC1=O)c1ccccc1N1C(=O)C(C)(C)N(O)[C@H]12)C(C)C
Activity (SGC-7901): inactive
Activity (HeLa): inactive
Activity (A549): inactive
Activity (Staphylococcus aureus): inactive
Activity (Escherichia coli): inactive
Activity (Bacillus subtilis): inactive
Activity (Streptococcus agalactiae): inactive
Activity (K562): inactive

Structure (SMILES): O=C1N[C@H]2c3nc4ccccc4c(=O)n3[C@@H]1C[C@@]21c2ccccc2N2C(=O)[C@@H]3CCCN3[C@H]21
Activity (SGC-7901): inactive
Activity (HeLa): inactive
Activity (A549): inactive
Activity (Staphylococcus aureus): inactive
Activity (Escherichia coli): inactive
Activity (Bacillus subtilis): inactive
Activity (Streptococcus agalactiae): inactive
Activity (K562): inactive

MIC [1]: 1 µg
Structure (SMILES): O=C1C=C(Br)/C(=C/Br)O1

MIC [1]: 32 µg
Structure (SMILES): CC(=O)OC(c1nc2ccccc2c(=O)n1[C@@H]1C[C@]2(OC1=O)C(=O)Nc1ccccc12)C(C)C (some centres not stated)
Activity (SGC-7901): inactive
Activity (HeLa): inactive
Activity (A549): inactive
Activity (Staphylococcus aureus): inactive
Activity (Escherichia coli): inactive
Activity (Bacillus subtilis): inactive
Activity (Streptococcus agalactiae): inactive
Activity (K562): inactive
